Test results: paper PMC4281207, “Dr-FtsA, an Actin Homologue in Deinococcus radiodurans Differentially Affects Dr-FtsZ and Ec-FtsZ Functions In Vitro” (PLoS ONE, 2014)

Tests used:
Dr-FtsZ [1] = target: T1, Dr-FtsZ (Deinococcus radiodurans, UniProt Q9RWN5); assay: stimulation of GTPase activity; [α[…]]-GTP TLC; assay type: biochemical; conditions: 0.5 mM ATP, 0.5 mM GTP, 2 mM MgCl2, PIPES pH 7.5, 37 °C; activator, site not known; ATP not hydrolysed
T1 construct: 42 kDa
T1 sequence (Q9RWN5 1-371): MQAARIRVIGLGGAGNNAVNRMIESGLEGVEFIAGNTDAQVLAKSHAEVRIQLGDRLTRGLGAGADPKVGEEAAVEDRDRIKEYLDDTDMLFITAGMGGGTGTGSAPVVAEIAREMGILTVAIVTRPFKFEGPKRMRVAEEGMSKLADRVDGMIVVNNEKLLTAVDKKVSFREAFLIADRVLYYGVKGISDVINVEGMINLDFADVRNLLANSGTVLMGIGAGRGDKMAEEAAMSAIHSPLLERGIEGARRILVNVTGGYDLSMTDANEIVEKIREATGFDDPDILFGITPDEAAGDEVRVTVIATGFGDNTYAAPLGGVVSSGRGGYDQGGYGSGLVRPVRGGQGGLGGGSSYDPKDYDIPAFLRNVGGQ

Dr-FtsA = target: T2, Dr-FtsA (Deinococcus radiodurans, UniProt Q9RWN6); assay: circular dichroism; transmission electron microscopy of polymers; assay type: binding; conditions: 10 µM ATP (CD) or 1 mM ATP (TEM), 37 °C; 25 mM PIPES pH 7.5, 50 mM KCl, with or without 5 mM MgCl2 (TEM); ATP not hydrolysed
T2 construct: full-length from pBADDFtsA (pBAD/HisA), expressed in E. coli TOP10; His tag removed; 54 kDa
T2 sequence (Q9RWN6 1-517): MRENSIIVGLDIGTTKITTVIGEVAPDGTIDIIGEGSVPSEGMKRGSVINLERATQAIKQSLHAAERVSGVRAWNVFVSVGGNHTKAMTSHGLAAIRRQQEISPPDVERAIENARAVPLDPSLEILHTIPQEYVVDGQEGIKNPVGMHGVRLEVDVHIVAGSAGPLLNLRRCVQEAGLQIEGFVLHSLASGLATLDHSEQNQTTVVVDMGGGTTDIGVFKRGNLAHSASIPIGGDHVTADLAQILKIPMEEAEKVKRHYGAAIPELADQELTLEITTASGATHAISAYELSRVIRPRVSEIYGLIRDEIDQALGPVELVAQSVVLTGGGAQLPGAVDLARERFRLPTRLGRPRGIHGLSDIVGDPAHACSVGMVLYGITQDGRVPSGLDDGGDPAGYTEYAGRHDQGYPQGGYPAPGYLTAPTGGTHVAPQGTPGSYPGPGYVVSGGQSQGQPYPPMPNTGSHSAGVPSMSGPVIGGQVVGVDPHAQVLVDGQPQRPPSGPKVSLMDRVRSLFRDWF

Dr-FtsZ [2] = target: T1, Dr-FtsZ; assay: malachite green Pi release; [α[…]]-GTP TLC; assay type: biochemical; conditions: PIPES pH 7.5, 50 mM KCl, 2 mM MgCl2, 1 mM GTP (0.5 mM in TLC assay), 37 °C

Structure (SMILES): Nc1ncnc2c1ncn2[C@@H]1O[C@H](COP(=O)(O)OP(=O)(O)OP(=O)(O)O)[C@@H](O)[C@H]1O [ATP]
- stimulation of GTPase activity; [α32P]-GTP TLC (Dr-FtsZ [1]): the GTPase activity of Dr-FtsZ was stimulated in the presence of ATP (Fig. 2C)
- circular dichroism; transmission electron microscopy of polymers (Dr-FtsA): had the correct secondary structure assignment, and interacted with ATP in solution

Structure (SMILES): Nc1nc2c(ncn2[C@@H]2O[C@H](COP(=O)(O)OP(=O)(O)OP(=O)(O)O)[C@@H](O)[C@H]2O)c(=O)[nH]1 [GTP]
- malachite green Pi release; [α32P]-GTP TLC (Dr-FtsZ [2]): GTPase activity of Dr-FtsZ was stimulated in the presence of Dr-FtsA
